Measurements reported in US9394268B2, “(E)-1-(5-methoxy-2,2-dimethyl-2H-chromen-8-yl)-3-(4-methoxyphenyl)prop-2-en-1-one and analogs thereof, as well as preparation method and use thereof” (Sichuan University, priority 2012, dated 2016).
One block for each molecule: values may come before it.

Assays:
Format in all cases: cell-based
[1] = test system: LO2; assay: Cell proliferative assay (MTT), LO2; details: Homo sapiens, L02, 72 h incubation, read-out: IC50s LO2
Method: (§1) The synthesized compounds were evaluated for their cytotoxin activity against suspended tumor cells. These cells were seeded on 96-well plates and incubated for 24 h. Selected compounds were added at various doses and incubated for 72 h, MTT was then added, and the absorbance was measured at a wavelength of 590 nm. IC50 values are expressed as the mean±SEM from the dose-response curves of at least three independent experiments.

[2] = test system: A375; assay: Cell proliferative assay (MTT), A375; details: Homo sapiens, A-375, 72 h incubation, read-out: IC50s A375
Method: as §1

[3] = test system: A549; assay: Cell proliferative assay (MTT), A549; details: Homo sapiens, 72 h incubation, read-out: IC50s A549
Method: as §1

[4] = test system: SMMC-7221; assay: Cell proliferative assay (MTT), SMMC-7221; details: 72 h incubation, read-out: IC50s SMMC-7221
Method: as §1

[5] = test system: HepG2; assay: Cell proliferative assay (MTT), HepG2; details: Homo sapiens, 72 h incubation, read-out: IC50s HepG2
Method: as §1

[6] = test system: K562; assay: Cell proliferative assay (MTT), K562; details: Homo sapiens, 72 h incubation, read-out: IC50s K562
Method: as §1

SMILES: COc1ccc(/C=C/C(=O)c2ccc(OC)c3c2OC(C)(C)C=C3)cc1NC(=O)Cc1cccc(C(F)(F)F)c1 [SKLBC-97, (E)-N-(2-methoxy-5-(3-(5-methoxy-2,2-dimethyl-2H-chromen-8-yl)-3-oxoprop-1-en-1-yl)phenyl)-2-(3-(trifluoromethyl)phenyl)acetamide]
IC50 [1]: > 10 µM | IC50 [2]: > 10 µM | IC50 [3]: > 10 µM | IC50 [4]: > 10 µM | IC50 [5]: > 10 µM | IC50 [6]: > 10 µM

SMILES: C#CCNc1cc(/C=C/C(=O)c2ccc(OC)c3c2OC(C)(C)C=C3)ccc1OC [SKLBC-87, (E)-1-(5-methoxy-2,2-dimethyl-2H-chromen-8-yl)-3-(4-methoxy-3-(prop-2-yn-1-ylamino)phenyl)prop-2-en-1-one]
IC50 [1]: > 20 µM | IC50 [2]: > 10 µM | IC50 [3]: > 10 µM | IC50 [4]: > 10 µM | IC50 [5]: > 10 µM | IC50 [6]: > 10 µM

SMILES: C=CCOc1cc(/C=C/C(=O)c2ccc(OC)c3c2OC(C)(C)C=C3)ccc1OC [SKLBC-72, (E)-3-(3-(allyloxy)-4-methoxyphenyl)-1-(5-methoxy-2,2-dimethyl-2H-chromen-8-yl)prop-2-en-1-one]
IC50 [1]: > 20 µM | IC50 [2]: > 10 µM | IC50 [3]: > 10 µM | IC50 [4]: > 10 µM | IC50 [5]: > 10 µM | IC50 [6]: > 10 µM

SMILES: COc1ccc(/C=C/C(=O)c2ccc(OC)c3c2OC(C)(C)C=C3)cc1NS(=O)(=O)Cc1ccccc1 [SKLBC-102, (E)-N-(2-methoxy-5-(3-(5-methoxy-2,2-dimethyl-2H-chromen-8-yl)-3-oxoprop-1-en-1-yl)phenyl)-1-phenylmethanesulfonamide]
IC50 [1]: > 20 µM | IC50 [2]: > 10 µM | IC50 [3]: > 10 µM | IC50 [4]: > 10 µM | IC50 [5]: > 10 µM | IC50 [6]: > 10 µM

SMILES: COc1ccc(/C=C/C(=O)c2ccc(OC)c3c2OC(C)(C)C=C3)cc1OCCN1CCCCC1 [SKLBC-60, (E)-1-(5-methoxy-2,2-dimethyl-2H-chromen-8-yl)-3-(4-methoxy-3-(2-(piperidin-1-yl)ethoxy)phenyl)prop-2-en-1-one]
IC50 [1]: > 20 µM | IC50 [2]: > 10 µM | IC50 [3]: > 10 µM | IC50 [4]: > 10 µM | IC50 [5]: > 10 µM | IC50 [6]: > 10 µM

SMILES: COc1ccc(/C=C/C(=O)c2ccc(OC)c3c2OC(C)(C)C=C3)cc1NS(=O)(=O)c1ccc(C)cc1 [SKLBC-101, (E)-N-(2-methoxy-5-(3-(5-methoxy-2,2-dimethyl-2H-chromen-8-yl)-3-oxoprop-1-en-1-yl)phenyl)-4-methylbenzenesulfonamide]
IC50 [1]: > 10 µM | IC50 [2]: > 10 µM | IC50 [3]: > 10 µM | IC50 [4]: 6.8 µM | IC50 [5]: > 10 µM | IC50 [6]: > 10 µM

SMILES: COc1ccc(/C=C/C(=O)c2ccc(OC)c3c2OC(C)(C)C=C3)cc1OS(C)(=O)=O [SKLBC-77, (E)-2-methoxy-5-(3-(5-methoxy-2,2-dimethyl-2H-chromen-8-yl)-3-oxoprop-1-en-1-yl)phenyl methanesulfonate]
IC50 [1]: > 10 µM | IC50 [2]: > 10 µM | IC50 [3]: > 10 µM | IC50 [4]: > 10 µM | IC50 [5]: 9 µM | IC50 [6]: 9.24 µM

SMILES: COc1ccc(/C=C/C(=O)c2ccc(OC)c3c2OC(C)(C)C=C3)cc1OCCN1CCOCC1 [SKLBC-57, (E)-1-(5-methoxy-2,2-dimethyl-2H-chromen-8-yl)-3-(4-methoxy-3-(2-morpholinoethoxy)phenyl)prop-2-en-1-one]
IC50 [1]: > 20 µM | IC50 [2]: > 10 µM | IC50 [3]: > 10 µM | IC50 [4]: > 10 µM | IC50 [5]: > 10 µM | IC50 [6]: > 10 µM

SMILES: COc1ccc(/C=C/C(=O)c2ccc(OC)c3c2OC(C)(C)C=C3)cc1NS(=O)(=O)C1CC1 [SKLBC-100, (E)-N-(2-methoxy-5-(3-(5-methoxy-2,2-dimethyl-2H-chromen-8-yl)-3-oxoprop-1-en-1-yl)phenyl)cyclopropanesulfonamide]
IC50 [1]: > 20 µM | IC50 [2]: > 10 µM | IC50 [3]: > 10 µM | IC50 [4]: > 10 µM | IC50 [5]: > 10 µM | IC50 [6]: > 10 µM

SMILES: COc1ccc(/C=C/C(=O)c2ccc(OC)c3c2OC(C)(C)C=C3)cc1OC(=O)CCCc1ccc(N(CCCl)CCCl)cc1 [SKLBC-65, (E)-2-methoxy-5-(3-(5-methoxy-2,2-dimethyl-2H-chromen-8-yl)-3-oxoprop-1-en-1-yl)phenyl 4-(4-(bis(2-chloroethyl)amino)phenyl)butanoate]
IC50 [1]: > 10 µM | IC50 [2]: 3.8 µM | IC50 [3]: 0.55 µM | IC50 [4]: 0.98 µM | IC50 [5]: 2.1 µM | IC50 [6]: 0.6 µM

SMILES: CCCCC(=O)Oc1ccc(C(=O)/C=C/c2ccc(N(CC)CC)cc2)c2c1C=CC(C)(C)O2 [SKLBC-51, (E)-8-(3-(4-(diethylamino)phenyl)acryloyl)-2,2-dimethyl-2H-chromen-5-ylpentanoate]
IC50 [1]: 20 µM | IC50 [2]: > 10 µM | IC50 [3]: > 20 µM | IC50 [4]: > 10 µM | IC50 [5]: > 10 µM | IC50 [6]: > 10 µM

SMILES: COc1ccc(/C=C/C(=O)c2ccc(OC)c3c2OC(C)(C)C=C3)cc1N(CC=C(C)C)CC=C(C)C [SKLBC-88, (E)-3-(3-(bis(3-methylbut-2-en-1-yl)amino)-4-methoxyphenyl)-1-(5-methoxy-2,2-dimethyl-2H-chromen-8-yl)prop-2-en-1-one]
IC50 [1]: 9.7 µM | IC50 [2]: > 10 µM | IC50 [3]: > 10 µM | IC50 [4]: > 10 µM | IC50 [5]: > 10 µM | IC50 [6]: 7.5 µM

The next lines start with results.

IC50 [2]: 0.105 µM | IC50 [3]: 0.86 µM | IC50 [4]: 1.9 µM | IC50 [5]: 0.195 µM | IC50 [6]: 0.43 µM
SMILES: COc1ccc(/C=C/C(=O)c2ccc(OC)c3c2OC(C)(C)C=C3)cc1OC(=O)Cc1ccc(Cl)c(Cl)c1 [SKLBC-67, (E)-2-methoxy-5-(3-(5-methoxy-2,2-dimethyl-2H-chromen-8-yl)-3-oxoprop-1-en-1-yl)phenyl 2-(3,4-dichlorophenyl)acetate]
IC50 [1]: 10 µM

IC50 [2]: 1.06 µM | IC50 [3]: 6.4 µM | IC50 [4]: > 10 µM | IC50 [5]: 2.52 µM | IC50 [6]: 2.83 µM
SMILES: COc1ccc(/C=C/C(=O)c2ccc(OC)c3c2OC(C)(C)C=C3)cc1OC(=O)C12CC3CC(CC(C3)C1)C2 [SKLBC-78]
IC50 [1]: 5.58 µM

IC50 [2]: 3.75 µM | IC50 [3]: > 10 µM | IC50 [4]: 3.38 µM | IC50 [5]: 8.2 µM | IC50 [6]: 4.25 µM
SMILES: CCN(CC)c1ccc(/C=C/C(=O)c2ccc(OS(=O)(=O)C3CC3)c3c2OC(C)(C)C=C3)cc1 [SKLBC-53, (E)-8-(3-(4-(diethylamino)phenyl)acryloyl)-2,2-dimethyl-2H-chromen-5-yl cyclopropanesulfonate]
IC50 [1]: > 10 µM

IC50 [2]: 0.67 µM | IC50 [3]: 0.58 µM | IC50 [4]: 1.32 µM | IC50 [5]: 0.226 µM | IC50 [6]: 0.5 µM
SMILES: COc1ccc(/C=C/C(=O)c2ccc(OC)c3c2OC(C)(C)C=C3)cc1OCCO [SKLBC-58, (E)-3-(3-(2-hydroxyethoxy)-4-methoxyphenyl)-1-(5-methoxy-2,2-dimethyl-2H-chromen-8-yl)prop-2-en-1-one]
IC50 [1]: > 10 µM

IC50 [2]: 2.15 µM | IC50 [3]: 5 µM | IC50 [4]: 2.24 µM | IC50 [5]: 2.85 µM | IC50 [6]: 3.5 µM
SMILES: COc1ccc(/C=C/C(=O)c2ccc(OC)c3c2OC(C)(C)C=C3)cc1NC(C)=O [SKLBC-92, (E)-N-(2-methoxy-5-(3-(5-methoxy-2,2-dimethyl-2H-chromen-8-yl)-3-oxoprop-1-en-1-yl)phenyl)acetamide]
IC50 [1]: > 10 µM

IC50 [2]: 9 µM | IC50 [3]: > 10 µM | IC50 [4]: 5.6 µM | IC50 [5]: 10 µM | IC50 [6]: 8.85 µM
SMILES: COc1ccc(/C=C/C(=O)c2ccc(OC)c3c2OC(C)(C)C=C3)cc1NS(C)(=O)=O [SKLBC-99, (E)-N-(2-methoxy-5-(3-(5-methoxy-2,2-dimethyl-2H-chromen-8-yl)-3-oxoprop-1-en-1-yl)phenyl)methanesulfonamide]
IC50 [1]: 9.8 µM

IC50 [2]: 0.245 µM | IC50 [3]: 0.226 µM | IC50 [4]: 2.73 µM | IC50 [5]: 0.09 µM | IC50 [6]: 0.202 µM
SMILES: COc1ccc(/C=C/C(=O)c2ccc(OC)c3c2OC(C)(C)C=C3)cc1OC(=O)CCl [SKLBC-74, (E)-2-methoxy-5-(3-(5-methoxy-2,2-dimethyl-2H-chromen-8-yl)-3-oxoprop-1-en-1-yl)phenyl 2-chloroacetate]
IC50 [1]: > 10 µM

IC50 [2]: 0.505 µM | IC50 [3]: 0.98 µM | IC50 [4]: 2.63 µM | IC50 [5]: 0.15 µM | IC50 [6]: 0.57 µM
SMILES: COc1ccc(/C=C/C(=O)c2ccc(OC)c3c2OC(C)(C)C=C3)cc1OC(=O)C(C)C [SKLBC-81, (E)-2-methoxy-5-(3-(5-methoxy-2,2-dimethyl-2H-chromen-8-yl)-3-oxoprop-1-en-1-yl)phenyl isobutyrate]
IC50 [1]: > 10 µM

IC50 [2]: 9.6 µM | IC50 [3]: 17.1 µM | IC50 [4]: > 10 µM | IC50 [5]: > 10 µM | IC50 [6]: 8.75 µM
SMILES: CCN(CC)c1ccc(/C=C/C(=O)c2ccc(OC(C)=O)c3c2OC(C)(C)C=C3)cc1 [SKLBC-48, (E)-8-(3-(4-(diethylamino)phenyl)acryloyl)-2,2-dimethyl-2H-chromen-5-yl acetate]
IC50 [1]: > 20 µM

IC50 [2]: 0.19 µM | IC50 [3]: 0.49 µM | IC50 [4]: 1.16 µM | IC50 [5]: 0.06 µM | IC50 [6]: 0.295 µM
SMILES: C=CC(=O)Oc1cc(/C=C/C(=O)c2ccc(OC)c3c2OC(C)(C)C=C3)ccc1OC [SKLBC-75, (E)-2-methoxy-5-(3-(5-methoxy-2,2-dimethyl-2H-chromen-8-yl)-3-oxoprop-1-en-1-yl)phenyl acrylate]
IC50 [1]: > 10 µM

IC50 [2]: 2.2 µM | IC50 [3]: 1.2 µM | IC50 [4]: 0.87 µM | IC50 [5]: 0.58 µM | IC50 [6]: 0.62 µM
SMILES: COc1ccc(/C=C/C(=O)c2ccc(OC)c3c2OC(C)(C)C=C3)cc1OCC=C(C)C [SKLBC-71, (E)-1-(5-methoxy-2,2-dimethyl-2H-chromen-8-yl)-3-(4-methoxy-3-((3-methylbut-2-en-1-yl)oxy)phenyl)prop-2-en-1-one]
IC50 [1]: > 10 µM
